Assay results from ChEMBL document CHEMBL5154916, “Multiparameter Optimization of Naphthyridine Derivatives as Selective α5-GABAA Receptor Negative Allosteric Modulators” (J Med Chem, 2022).

Columns and labels:
[1] = Metabolic stability in Wistar rat liver microsomes assessed as intrinsic clearance at 2.5 uM; assay type: ADME, Microsome; settings: read-out: CLH
[2] = Metabolic stability in human liver microsomes assessed as intrinsic clearance at 2.5 uM; assay type: ADME, Microsome; settings: read-out: CLH
[3] = biological target: T1, GABA-A receptor; alpha-5/beta-3/gamma-2 (Homo sapiens) (UniProt P18507+P28472+P31644); assay: Negative allosteric modulation activity at human recombinant alpha5beta3gamma2 GABAA receptor stably expressed in HEK293 cells assessed as modulation at alpha5 subunit at 1 uM by Patch clamp method; assay type: cell-based; settings: filed as negative allosteric modulator
[4] = biological target: Voltage-gated inwardly rectifying potassium channel KCNH2 (Homo sapiens, UniProt Q12809); assay: Inhibition of hERG expressed in CHO cells stably at -80 mV holding potential by automated patch clamp method; assay type: toxicity, cell-based
[5] = biological target: T2, GABA-A receptor; alpha-5/beta-3/gamma-2 (Homo sapiens, UniProt P18507+P28472+P31644); assay: Displacement of [3H]Ro151788 from human recombinant alpha5beta3gamma2 GABAA receptor stably expressed in HEK293 cell membrane assessed as inhibition constant by radioligand binding assay; assay type: cell membranes
T2 sequence (P18507 whole entry): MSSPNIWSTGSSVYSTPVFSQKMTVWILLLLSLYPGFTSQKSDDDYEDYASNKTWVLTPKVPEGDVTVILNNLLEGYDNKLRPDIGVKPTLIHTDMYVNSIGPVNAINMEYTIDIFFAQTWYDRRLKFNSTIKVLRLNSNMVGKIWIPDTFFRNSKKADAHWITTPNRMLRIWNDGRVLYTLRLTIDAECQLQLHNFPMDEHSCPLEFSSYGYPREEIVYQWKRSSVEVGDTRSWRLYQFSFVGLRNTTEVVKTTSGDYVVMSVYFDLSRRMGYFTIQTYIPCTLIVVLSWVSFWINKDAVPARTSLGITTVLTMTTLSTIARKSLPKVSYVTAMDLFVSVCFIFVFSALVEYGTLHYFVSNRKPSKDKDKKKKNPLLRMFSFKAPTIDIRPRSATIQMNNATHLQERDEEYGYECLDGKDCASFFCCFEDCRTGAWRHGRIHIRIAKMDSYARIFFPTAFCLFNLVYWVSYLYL
T2 sequence (P28472 whole entry): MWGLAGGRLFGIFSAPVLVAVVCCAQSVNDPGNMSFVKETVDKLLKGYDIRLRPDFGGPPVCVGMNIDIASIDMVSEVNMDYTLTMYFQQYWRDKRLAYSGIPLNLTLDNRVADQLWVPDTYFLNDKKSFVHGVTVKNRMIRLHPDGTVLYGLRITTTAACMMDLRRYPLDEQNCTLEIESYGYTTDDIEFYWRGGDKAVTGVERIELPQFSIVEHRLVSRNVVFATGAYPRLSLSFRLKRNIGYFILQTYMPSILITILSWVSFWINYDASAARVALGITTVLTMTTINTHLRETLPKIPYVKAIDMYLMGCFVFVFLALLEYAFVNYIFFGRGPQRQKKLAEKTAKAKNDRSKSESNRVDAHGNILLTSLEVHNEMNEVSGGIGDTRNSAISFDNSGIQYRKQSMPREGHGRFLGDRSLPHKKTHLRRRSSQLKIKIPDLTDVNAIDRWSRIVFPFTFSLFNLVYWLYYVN
T2 sequence (P31644 whole entry): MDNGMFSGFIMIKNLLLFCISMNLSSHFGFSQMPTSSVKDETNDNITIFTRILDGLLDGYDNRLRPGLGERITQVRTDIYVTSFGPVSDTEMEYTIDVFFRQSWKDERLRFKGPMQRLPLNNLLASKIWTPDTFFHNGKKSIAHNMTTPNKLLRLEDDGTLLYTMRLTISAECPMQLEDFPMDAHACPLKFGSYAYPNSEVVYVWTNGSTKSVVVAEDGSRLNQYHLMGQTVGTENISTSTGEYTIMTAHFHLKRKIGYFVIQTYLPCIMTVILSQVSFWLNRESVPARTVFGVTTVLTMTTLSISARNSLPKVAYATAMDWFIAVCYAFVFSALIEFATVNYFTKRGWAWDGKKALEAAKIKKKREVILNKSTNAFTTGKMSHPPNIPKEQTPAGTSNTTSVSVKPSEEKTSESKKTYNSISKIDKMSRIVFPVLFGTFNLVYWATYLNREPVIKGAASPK

[6] = biological target: T1, GABA-A receptor; alpha-5/beta-3/gamma-2 (Homo sapiens); assay: Negative allosteric modulation activity at human recombinant alpha5beta3gamma2 GABAA receptor stably expressed in HEK293 cells assessed as modulation at alpha5 subunit at 10 uM by Patch clamp method; assay type: cell-based; settings: filed as negative allosteric modulator
[7] = biological target: GABA-A receptor; alpha-1/beta-3/gamma-2 (Homo sapiens) (UniProt P14867+P18507+P28472); assay: Negative allosteric modulation activity at human recombinant alpha1beta3gamma2 GABAA receptor stably expressed in HEK293 cells assessed as modulation at alpha1 subunit at 10 uM by Patch clamp method; assay type: cell-based; settings: filed as negative allosteric modulator

Sequence of Voltage-gated inwardly rectifying potassium channel KCNH2 (Q12809 whole entry): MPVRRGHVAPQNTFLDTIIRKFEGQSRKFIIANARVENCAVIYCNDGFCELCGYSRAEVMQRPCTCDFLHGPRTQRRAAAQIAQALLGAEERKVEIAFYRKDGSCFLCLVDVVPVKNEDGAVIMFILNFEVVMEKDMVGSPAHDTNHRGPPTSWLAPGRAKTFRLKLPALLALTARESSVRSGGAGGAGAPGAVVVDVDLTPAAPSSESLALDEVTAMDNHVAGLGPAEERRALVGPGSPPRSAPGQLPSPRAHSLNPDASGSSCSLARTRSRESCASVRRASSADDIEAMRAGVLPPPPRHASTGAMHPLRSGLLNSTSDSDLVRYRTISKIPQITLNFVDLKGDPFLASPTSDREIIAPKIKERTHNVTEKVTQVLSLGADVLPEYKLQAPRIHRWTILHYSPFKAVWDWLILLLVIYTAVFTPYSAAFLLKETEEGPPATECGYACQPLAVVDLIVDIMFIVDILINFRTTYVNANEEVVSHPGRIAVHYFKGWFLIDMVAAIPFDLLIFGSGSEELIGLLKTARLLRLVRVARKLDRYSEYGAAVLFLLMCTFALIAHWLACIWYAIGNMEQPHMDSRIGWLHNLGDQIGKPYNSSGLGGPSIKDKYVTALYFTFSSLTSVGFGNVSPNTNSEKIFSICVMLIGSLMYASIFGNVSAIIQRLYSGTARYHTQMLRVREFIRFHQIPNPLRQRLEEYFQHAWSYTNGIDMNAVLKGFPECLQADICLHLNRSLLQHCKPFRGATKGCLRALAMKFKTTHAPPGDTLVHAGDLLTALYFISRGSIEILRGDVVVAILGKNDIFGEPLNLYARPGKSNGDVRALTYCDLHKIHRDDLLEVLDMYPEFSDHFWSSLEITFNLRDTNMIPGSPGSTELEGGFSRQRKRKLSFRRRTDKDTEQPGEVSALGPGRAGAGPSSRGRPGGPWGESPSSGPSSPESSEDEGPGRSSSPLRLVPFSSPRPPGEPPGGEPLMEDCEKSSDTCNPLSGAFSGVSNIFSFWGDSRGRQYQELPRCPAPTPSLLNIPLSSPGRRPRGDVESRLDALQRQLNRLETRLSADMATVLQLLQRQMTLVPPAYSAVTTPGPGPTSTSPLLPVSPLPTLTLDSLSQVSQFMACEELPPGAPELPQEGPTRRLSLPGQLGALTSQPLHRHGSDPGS

## CC(=O)N1CCc2nc(OCc3c(-c4ccc(F)cc4)noc3C)ccc2C1
[1]
  microsomal CLint at 2.5 µM: 301 µL/min/mg
[2]
  microsomal CLint at 2.5 µM: 74 µL/min/mg
[3]
  Activity: -19%
[4]
  IC50: 5300 nM
[5]
  Ki: 1.9 nM
[6]
  Activity: -16%

## Cc1onc(-c2ccc(F)cc2)c1COc1ccc2c(n1)CCNC2=O
[1]
  microsomal CLint at 2.5 µM: 227 µL/min/mg
[2]
  microsomal CLint at 2.5 µM: 14 µL/min/mg
[3]
  Activity: -25%
[4]
  IC50: 10000 nM
[5]
  Ki: 4.1 nM
[6]
  Activity: -42%
[7]
  Activity: 2%

## Cc1onc(-c2ccc(F)cc2)c1COc1ccc2c(n1)CCN(CC1CCCS1(=O)=O)C2=O (centres undefined)
[3]
  Activity: -23%
[4]
  IC50: 1800 nM
[5]
  Ki: 23 nM
[6]
  Activity: -36%
[7]
  Activity: -12%

## Cc1onc(-c2ccc(F)cc2)c1COc1ccc2c(n1)CCN(C(C)C)C2=O
[1]
  microsomal CLint at 2.5 µM: 214 µL/min/mg
[2]
  microsomal CLint at 2.5 µM: 16 µL/min/mg
[3]
  Activity: -9%
[4]
  IC50: 4400 nM
[5]
  Ki: 13 nM
[6]
  Activity: -25%
[7]
  Activity: -2%

## Cc1onc(-c2ccc(F)cc2)c1COc1ccc2c(n1)CCN(C(=O)C1CCC1)C2
[1]
  microsomal CLint at 2.5 µM: 400 µL/min/mg
[2]
  microsomal CLint at 2.5 µM: 57 µL/min/mg
[3]
  Activity: -7%
[4]
  IC50: > 10000 nM
[5]
  Ki: 13 nM
[6]
  Activity: -26%

## Cc1onc(-c2ccc(F)cc2)c1COc1ccc2c(n1)CCN(C(=O)CCS(C)(=O)=O)C2
[1]
  microsomal CLint at 2.5 µM: 44 µL/min/mg
[2]
  microsomal CLint at 2.5 µM: 9 µL/min/mg
[3]
  Activity: -16%
[4]
  IC50: 4200 nM
[5]
  Ki: 30 nM
[6]
  Activity: -35%

## Cc1onc(-c2ccc(F)cc2)c1COc1ccc2c(n1)CCN(C1CCOC1)C2=O (centres undefined)
[1]
  microsomal CLint at 2.5 µM: 139 µL/min/mg
[2]
  microsomal CLint at 2.5 µM: 29 µL/min/mg
[3]
  Activity: -25%
[4]
  IC50: 3200 nM
[5]
  Ki: 8 nM
[6]
  Activity: -39%
[7]
  Activity: -10%

## CCC(=O)N1CCc2nc(OCc3c(C)nnn3-c3ccc(F)cc3)ccc2C1
[1]
  microsomal CLint at 2.5 µM: 92 µL/min/mg
[2]
  microsomal CLint at 2.5 µM: 48 µL/min/mg
[5]
  Ki: 46 nM

## Cc1onc(-c2ccc(F)cc2)c1COc1ccc2c(n1)CCN(C(=O)c1ccno1)C2
[1]
  microsomal CLint at 2.5 µM: 245 µL/min/mg
[2]
  microsomal CLint at 2.5 µM: 67 µL/min/mg
[3]
  Activity: -13%
[4]
  IC50: 6400 nM
[5]
  Ki: 4.6 nM
[6]
  Activity: -32%

## Cc1onc(-c2ccc(F)cc2)c1COc1ccc2c(n1)CCN(C(=O)C1CCCO1)C2 (centres undefined)
[1]
  microsomal CLint at 2.5 µM: 210 µL/min/mg
[2]
  microsomal CLint at 2.5 µM: 42 µL/min/mg
[5]
  Ki: 9.9 nM

## Cc1onc(-c2ccc(F)cc2)c1COc1ccc2c(c1)CCC(=O)N2C
[3]
  Activity: -6%
[5]
  Ki: 13 nM
[6]
  Activity: -10%

## Cc1onc(-c2ccc(F)cc2)c1COc1ccc2c(n1)CCN(Cc1ccco1)C2=O
[1]
  microsomal CLint at 2.5 µM: 365 µL/min/mg
[2]
  microsomal CLint at 2.5 µM: 85 µL/min/mg
[3]
  Activity: -14%
[4]
  IC50: 3500 nM
[5]
  Ki: 21 nM
[6]
  Activity: -31%

## Cc1onc(-c2ccc(F)cc2)c1COc1ccc2c(n1)CCN(C(=O)C1CC1)C2
[1]
  microsomal CLint at 2.5 µM: 388 µL/min/mg
[2]
  microsomal CLint at 2.5 µM: 71 µL/min/mg
[3]
  Activity: -4%
[4]
  IC50: 5800 nM
[5]
  Ki: 8.3 nM
[6]
  Activity: -34%

## Cc1onc(-c2ccc(F)cc2)c1COc1ccc2c(n1)CCN(C(=O)N1CCCCC1)C2
[1]
  microsomal CLint at 2.5 µM: 359 µL/min/mg
[2]
  microsomal CLint at 2.5 µM: 107 µL/min/mg
[4]
  IC50: 10000 nM
[5]
  Ki: 49 nM

## Cc1onc(-c2ccc(F)cc2)c1COc1cc2c(cn1)C(=O)NCC2
[3]
  Activity: 15%
[5]
  Ki: 0.49 nM
[6]
  Activity: 6%

## Cc1onc(-c2ccc(F)cc2)c1COc1ccc2c(n1)CCN(C(=O)N1CCOCC1)C2
[1]
  microsomal CLint at 2.5 µM: 142 µL/min/mg
[2]
  microsomal CLint at 2.5 µM: 32 µL/min/mg
[3]
  Activity: -15%
[4]
  IC50: 9100 nM
[5]
  Ki: 4.6 nM
[6]
  Activity: -39%

## Cc1onc(-c2ccc(F)cc2)c1COc1ccc2c(n1)CCN(C(=O)N(C)C)C2
[1]
  microsomal CLint at 2.5 µM: 356 µL/min/mg
[2]
  microsomal CLint at 2.5 µM: 49 µL/min/mg
[3]
  Activity: -22%
[4]
  IC50: 8300 nM
[5]
  Ki: 2.7 nM
[6]
  Activity: -42%

## Cc1onc(-c2ccc(F)cc2)c1COc1ccc2c(n1)CCN(C(=O)N1CCCC1)C2
[1]
  microsomal CLint at 2.5 µM: 279 µL/min/mg
[2]
  microsomal CLint at 2.5 µM: 45 µL/min/mg
[3]
  Activity: -12%
[4]
  IC50: 10000 nM
[5]
  Ki: 7.3 nM
[6]
  Activity: -36%

## Cc1onc(-c2ccc(F)cc2)c1COc1ccc2c(n1)CCN(CC1CCCO1)C2=O (centres undefined)
[3]
  Activity: -29%
[4]
  IC50: 2900 nM
[5]
  Ki: 23 nM
[6]
  Activity: -28%
[7]
  Activity: -6%

## Cc1nnn(-c2ccc(F)cc2)c1COc1ccc2c(n1)CCN(C(=O)C1CC1)C2
[1]
  microsomal CLint at 2.5 µM: 99 µL/min/mg
[2]
  microsomal CLint at 2.5 µM: 53 µL/min/mg
[5]
  Ki: 49 nM

## Cc1onc(-c2ccc(F)cc2)c1COc1ccc2c(c1)OCC(=O)N2C
[1]
  microsomal CLint at 2.5 µM: 381 µL/min/mg
[2]
  microsomal CLint at 2.5 µM: 33 µL/min/mg
[3]
  Activity: -16%
[5]
  Ki: 14 nM

## Cc1onc(-c2ccc(F)cc2)c1COc1ccc2c(c1)CCNC2=O
[1]
  microsomal CLint at 2.5 µM: 108 µL/min/mg
[2]
  microsomal CLint at 2.5 µM: 10 µL/min/mg
[3]
  Activity: -6%
[5]
  Ki: 10 nM
[6]
  Activity: -7%

## Cc1onc(-c2ccc(F)cc2)c1COc1ccc2c(n1)CCN(Cc1ccno1)C2=O
[3]
  Activity: -29%
[4]
  IC50: 2500 nM
[5]
  Ki: 9 nM
[6]
  Activity: -35%
[7]
  Activity: -10%

## Cc1onc(-c2ccc(F)cc2)c1COc1ccc(C(=O)N2CCS(=O)(=O)CC2)cn1 [BASMISANIL]
[1]
  microsomal CLint at 2.5 µM: 22 µL/min/mg
[2]
  microsomal CLint at 2.5 µM: 7.5 µL/min/mg
[3]
  Activity: -24%
[5]
  Ki: 4.4 nM
[6]
  Activity: -25%
[7]
  Activity: -2%
